Assay results as given in ChEMBL document CHEMBL5725558, “BTK Inhibitors” (2017).

Target: Tyrosine-protein kinase BTK (Homo sapiens, UniProt Q06187)
Assay: Phosphorylation reactions were allowed to proceed for 120 minutes. […] After 60 minutes incubation with detection reagents, reaction plates were read on a PerkinElmer EnVision plate reader using standard TR-FRET protocol. […] IC50 values were determined by 4 parameter robust fit of TR-FRET ratio values vs. (Log10) compound concentrations.

Sequence of Tyrosine-protein kinase BTK (Q06187 whole entry): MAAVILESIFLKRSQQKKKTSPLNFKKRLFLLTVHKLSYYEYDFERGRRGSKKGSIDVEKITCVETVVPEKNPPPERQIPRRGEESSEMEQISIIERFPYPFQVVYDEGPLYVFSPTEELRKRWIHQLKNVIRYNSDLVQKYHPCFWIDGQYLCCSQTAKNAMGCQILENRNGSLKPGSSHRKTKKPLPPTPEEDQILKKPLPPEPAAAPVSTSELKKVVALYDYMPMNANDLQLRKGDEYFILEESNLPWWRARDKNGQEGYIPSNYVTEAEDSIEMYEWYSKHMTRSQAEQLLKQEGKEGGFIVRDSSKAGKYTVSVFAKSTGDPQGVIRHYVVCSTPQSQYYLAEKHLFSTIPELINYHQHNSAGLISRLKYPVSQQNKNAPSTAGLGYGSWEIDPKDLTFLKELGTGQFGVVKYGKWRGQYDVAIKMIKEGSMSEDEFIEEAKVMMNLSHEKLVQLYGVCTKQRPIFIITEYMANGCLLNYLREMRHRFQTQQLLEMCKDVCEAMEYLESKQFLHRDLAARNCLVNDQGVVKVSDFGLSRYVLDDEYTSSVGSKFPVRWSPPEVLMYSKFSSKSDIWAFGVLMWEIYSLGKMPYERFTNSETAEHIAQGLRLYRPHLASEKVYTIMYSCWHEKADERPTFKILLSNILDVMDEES

IC50: < 10 nM
SMILES: CC(=O)N1CCC[C@@H](c2nc(-c3ccc(C(=O)Nc4cc(C)ccn4)cc3)c3c(N)nccn23)C1
